Test [1] deals with CCRF-CEM. Nature of the test: In vitro inhibitory activity against replication of HIV-1 in human lymphocyte CEM cells. The format is functional, cell-based.
Test [2] relates to CCRF-CEM. As to the kind of experiment: In vitro inhibitory activity against replication of HIV-2 in human lymphocyte CEM cells. The format is functional, cell-based.
Test [3] deals with MT4. Nature of the test: Cytotoxicity against human lymphocyte MT-4 cells. Type of test: functional.
Test [4] has as its system MT4. Nature of the test: In vitro inhibitory activity against replication of HIV-1 in human lymphocyte MT-4 cells. Type of test: functional, cell-based.
The subject of test [5] is CCRF-CEM. Nature of the test: In vitro inhibitory activity against replication of HIV-2 in human lymphocyte thymidine kinase deficient CEM cells. Type of test: functional, cell-based.
Test [6] deals with MT4. Nature of the test: In vitro inhibitory activity against replication of HIV-2 in human lymphocyte MT-4 cells. Type of test: functional, cell-based.

As a reminder, the EC50 is the concentration giving half of the maximal effect. A lower EC50 goes with greater potency. One may read the CC50 as the concentration that lowers cell viability or growth by half. Low readings indicate harm at low concentration, high ones better tolerance by the cells. Consider `Cc1cn(C2CC(N=[N+]=[N-])C(COP(=O)(Oc3ccccc3[N+](=O)[O-])Oc3ccccc3[N+](=O)[O-])O2)c(=O)[nH]c1=O` (configuration not stated), for which the EC50 in the test with CCRF-CEM [1] was 5.3 nM; in the test on CCRF-CEM [2], 6.2 nM; with MT4 [4], 12.1 nM; in the test with CCRF-CEM [5], above 100000 nM; in the test with MT4 [6], 14 nM. The same molecule came in with a CC50 in the test on MT4 [3] of 42000 nM.
As for `Cc1cn(C2CC(N=[N+]=[N-])C(COP(=O)(Oc3cccc([N+](=O)[O-])c3)Oc3cccc([N+](=O)[O-])c3)O2)c(=O)[nH]c1=O` (configuration not stated), the half-maximal effective concentration (EC50) with CCRF-CEM [1] came out at 3.8 nM; in the test on CCRF-CEM [2], 3.8 nM; in the test with MT4 [4], 2.5 nM; in the test on CCRF-CEM [5] it was 85000 nM; with MT4 [6], 3.1 nM. In the test on MT4 [3], the CC50 was determined as 36000 nM.
With `Cc1cn(C2CC(N=[N+]=[N-])C(COP(=O)(Oc3ccc([N+](=O)[O-])cc3)Oc3ccc([N+](=O)[O-])cc3)O2)c(=O)[nH]c1=O` (configuration not stated), the EC50 in the test with CCRF-CEM [1] worked out at 9 nM; in the test with CCRF-CEM [2], 15 nM; in the test with MT4 [4], 13 nM; in the test with CCRF-CEM [5], 50000 nM; in the test with MT4 [6] it was 10 nM. In addition, half-maximal cytotoxicity in the test on MT4 [3] (CC50) was put at 50000 nM.
As to `Cc1cn([C@H]2C[C@H](N=[N+]=[N-])[C@@H](CO)O2)c(=O)[nH]c1=O` [ZIDOVUDINE], the EC50 in the test with CCRF-CEM [2] is 3.5 nM; in the test with MT4 [4], 2.5 nM; in the test with CCRF-CEM [5], above 100000 nM. The same molecule had a CC50 in the test on MT4 [3] of 6000 nM.
